Measurements as given in patent publication US5324725A, “7-fused 2-(piperazinoalkyl) indole derivatives, intermediates and compositions thereof” (Kali-Chemie Pharma GmbH, priority 1991, dated 1994).

Tests used:
[1] = tested on: P.A.F.-induced aggregation of platelets from rabbit blood; test: Anti-P.A.F. effect in vitro: inhibition of P.A.F.-induced platelet aggregation; assay type: cell-based, rabbit (New Zealand hybrids); conditions: Oryctolagus cuniculus, Platelet, test substance concentration 10^-5 mol/l
Outline: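 Washed, aspirin-treated rabbit platelets (4×10^9/ml stock suspension) in modified Tyrode buffer, pH 7.4, preincubated 90 s with test compound at 10^-5 mol/l final, then challenged with P.A.F. Aggregation followed 4–5 min in an aggregometer. Inhibition expressed in % relative to P.A.F.-only (100%) and platelet-only (0%) controls.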

[2] = tested on: Histamine-induced anaphylactoid reactions; test: Inhibition of anaphylactoid cutaneous reaction induced by histamine; assay type: in vivo, rat (Sprague-Dawley); conditions: Rattus norvegicus, 1 h; rats, 2 × 10^-5 mol/kg p.o., one hour before challenge; histamine intradermal
Outline: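 Animals received 50 μl intradermal histamine (0.8 mg/ml in saline) in the flank opposite the antiserum site, just before i.v. ovalbumin plus blue dye. Test substance at 2×10^-5 mol/kg was given orally 1 h before challenge in water with 1% DMF and 1% Tween 20. Blue-dye exudation was scored visually at 30 min, giving % inhibition versus solvent controls.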

Row | Compound | inhibition at 10 µM [1] [%] | inhibition in vivo at 20 µmol/kg [2] [%]
1 | CCCCC1CCc2cccc3c(CCN4CCN(c5cc(C)ccn5)CC4)c(C)n1c23 (stereo not shown) [Example 73, 4-n-butyl-5,6-dihydro-2-methyl-1-{2-[4-(4-methylpyridin-2-yl)piperazin-1-yl]ethyl}-4H-pyrrolo[3,2,1-ij]quinoline] | 99 | 95
2 | Cc1ccnc(N2CCN(CCc3c(C)n4c5c(cc(C(=O)C6CCCCC6)cc35)CCC4)CC2)c1 [Example 83] | 100 | –
3 | CC(C)=Cc1cc2c3c(c1)c(CCN1CCN(c4cc(C)ccn4)CC1)c(C)n3CCC2 [Example 26, 5,6-Dihydro-2-methyl-8-(2-methylprop-1-enyl)-1-{2-[4-(4-methylpyridin-2-yl)piperazin-1-yl]ethyl}-4H-pyrrolo[3,2,1-ij]quinoline] | 89 | 90
4 | Cc1ccnc(N2CCN(CCc3c(C)n4c5c(cccc35)CCC4)CC2)c1 [Example 1, 5,6-Dihydro-2-methyl-1-{2-[4-(4-methylpyridin-2-yl)piperazin-1-yl]ethyl}-4H-pyrrolo[3,2,1-ij]quinoline] | 97 | 85
5 | CCCCC1CCc2cc(OC)cc3c(CCN4CCN(c5cc(C)ccn5)CC4)c(C)n1c23 (stereo not shown) [Example 63] | 98 | 95
6 | CCCCC1CCc2cc(O)cc3c(CCN4CCN(c5cc(C)ccn5)CC4)c(C)n1c23 (stereo not shown) [Example 76] | 99 | 100
7 | Cc1ccnc(N2CCN(CC(O)c3c(C4CCCCC4)n4c5c(cccc35)CCC4)CC2)c1 (stereo not shown) [Example 85] | 100 | –
8 | CCCCCCCC1CCc2cccc3c(CCN4CCN(c5cc(C)ccn5)CC4)c(C)n1c23 (stereo not shown) [Example 4, 4-n-heptyl-5,6-dihydro-2-methyl-1-{2-[4-(4-methylpyridin-2-yl)piperazin-1-yl]ethyl}-4H-pyrrolo[3,2,1-ij]-quinoline] | 58 | 55
9 | Cc1ccnc(N2CCN(CCc3c(-c4ccc(F)cc4)n4c5c(cccc35)CCC4)CC2)c1 [Example 47] | 95 | 20
10 | Cc1ccnc(N2CCN(CCc3c(C)n4c5c(cc(C(=O)C(C)C)cc35)CCC4)CC2)c1 [Example 27, 5,6-dihydro-2-methyl-8-(2-methyl-1-oxopropyl)-1-{2-[4-(4-methylpyridin-2-yl)piperazin-1-yl]ethyl}-4H-pyrrolo-[3,2,1-ij]quinoline] | 83 | 95
11 | Cc1ccnc(N2CCN(CCc3c(C)n4c5c(cc(NC(=O)c6ccccc6)cc35)CCC4)CC2)c1 [Example 25, 8-Benzoylamino-5,6-dihydro-2-methyl-1-{2-[4-(4-methylpyridin-2-yl)piperazin-1-yl]-ethyl}-4H-pyrrolo[3,2,1-ij]quinoline] | 43 | 100
12 | CNc1cc2c3c(c1)c(CCN1CCN(c4cc(C)ccn4)CC1)c(C)n3CCC2 [Example 80] | 72 | –
13 | Cc1ccnc(N2CCN(CCc3c(-c4ccc(OCCCCO)cc4)n4c5c(cccc35)CCC4)CC2)c1 [Example 12, 2-[4-(4-Hydroxybutyloxy)-phenyl]-1-{2-[4-(4-methylpyridin-2-yl)piperazin-1-yl]ethyl}-5,6-dihydro-4H-pyrrolo[3,2,1-ij]quinoline] | 100 | 25
14 | CCc1c(C(O)CN2CCN(c3cc(C)ccn3)CC2)c2cccc3c2n1CCC3 (stereo not shown) [Example 14, 2-Ethyl-5,6-dihydro-1-{2-[4-(4-methylpyridin-2-yl)piperazin-1-yl]-1-hydroxyethyl}-4H-pyrrolo[3,2,1-ij]quinoline] | 86 | 25
15 | COc1ccc(C2CCc3cc(OC)cc4c(CCN5CCN(c6cc(C)ccn6)CC5)c(C)n2c34)cc1 (stereo not shown) [Example 65] | 100 | 95
16 | CCCCC1CCc2cc(C(=O)C(C)C)cc3c(CCN4CCN(c5cc(C)ccn5)CC4)c(C)n1c23 (stereo not shown) [Example 23, 4-n-Butyl-5,6-dihydro-8-(2-methyl-1-oxopropyl)-2-methyl-1-{2-[4-(4-methylpyridin-2-yl)piperazin-1-yl]ethyl}-4H-pyrrolo[3,2,1-ij]quinoline] | 100 | 95

Row | Compound | inhibition at 10 µM [1] [%] | inhibition in vivo at 20 µmol/kg [2] [%]
17 | Cc1ccnc(N2CCN(CCc3c(C)n4c5c(cc(Cc6ccccc6)cc35)CCC4)CC2)c1 [Example 77] | 100 | 30
18 | COc1ccc(C2CCc3cccc4c(CCN5CCN(c6cc(C)ccn6)CC5)c(C)n2c34)cc1 (stereo not shown) [Example 59] | 89 | 95
19 | Cc1ccnc(N2CCN(CCc3c(C)n4c5c(cccc35)CC4C)CC2)c1 (stereo not shown) [Example 33] | 71 | 93
20 | Cc1ccnc(N2CCN(CCc3c(C)n4c5c(ccc(C(O)C(C)C)c35)SCC4)CC2)c1 (stereo not shown) [Example 90] | 64 | 77
21 | Cc1ccnc(N2CCN(CCc3c(C)n4c5c(ccc(C(=O)C(C)C)c35)SCC4)CC2)c1 [Example 91] | 58 | 87
22 | Cc1ccnc(N2CCN(CCc3c(C)n4c5c(cccc35)CCC4c3ccccc3)CC2)c1 (stereo not shown) [Example 3, 5,6-dihydro-2-methyl-4-phenyl-1-{2-[4-(4-methylpyridine-2-yl)piperazin-1-yl]-ethyl}-4H-pyrrolo[3,2,1-ij]quinoline] | 100 | 93
23 | Cc1ccc(N2CCN(CCc3c(C)n4c5c(cccc35)CCC4)CC2)nc1 [Example 42] | – | 45
24 | Cc1ccnc(N2CCN(CCc3c(C)n4c5c(cc(NC(=O)C(C)C)cc35)CCC4)CC2)c1 [Example 60] | 44 | 95
25 | Cc1ccnc(N2CCN(CCc3c(C)n4c5c(cccc35)CCC4C3CCCCC3)CC2)c1 (stereo not shown) [Example 87] | 100 | –
26 | Cc1ccnc(N2CCN(CCc3c(C)n4c5c(cccc35)SCC4)CC2)c1 [Example 11, 5-Methyl-6-{2-[4-(4-methylpyridin-2-yl)piperazin-1-yl]ethyl}-2,3-dihydro-pyrrolo[1,2,3-de]-1,4-benzo-thiazine] | 89 | 93
27 | Cc1ccnc(N2CCN(CCc3c(C)n4c5c(ccc(Cl)c35)OCC4)CC2)c1 [Example 35] | 56 | 58
28 | Cc1ccnc(N2CCN(CCc3c(C)n4c5c(cc(Br)cc35)CCC4)CC2)c1 [Example 9, 8-Bromo-2-methyl-1-{2-[4-(4-methylpyridin-2-yl)piperazin-1-yl]ethyl}-5,6-dihydro-4H-pyrrolo[3,2,1-ij]quinoline] | 73 | 80
29 | Cc1ccnc(N2CCN(CCc3c(C)n4c5c(c(Cl)cc(Cl)c35)OCC4)CC2)c1 [Example 79] | 71 | –
30 | Cc1ccnc(N2CCN(CCc3c(C)n4c5c(cc(N(C)C)cc35)CCC4)CC2)c1 [Example 81] | – | 82
31 | Cc1ccnc(N2CCN(CCc3c(-c4ccc(O)cc4)n4c5c(cccc35)CCC4)CC2)c1 [Example 8, 2-(4-hydroxyphenyl)-1-{2-[4-(4-methylpyridin-2-yl)piperazin-1-yl]ethyl}-5,6-dihydro-4H-pyrrolo[3,2,1-ij]quinoline] | 100 | –
32 | Cc1ccnc(N2CCN(CCc3c(C)n4c5c(c(C(O)C(C)C)ccc35)SCC4)CC2)c1 (stereo not shown) [Example 89] | 100 | –
